Key:
Assay type in all cases: in vivo
[1] = test system: Erysiphe graminis f. sp. tritici; assay: Test A: wheat powdery mildew, preventive spray on wheat seedlings; details: 200 ppm, 100 = 100% disease control, 0 = no control relative to controls; for pest or weed control at 200 ppm: Blumeria graminis, 192 h, read-out: Test A disease control rating
Source text: (§1) General protocol for preparing test suspensions for Tests A-R: The test compounds were first dissolved in acetone in an amount equal to 3% of the final volume and then suspended at the desired concentration (in ppm) in acetone and purified water (50/50 mix) containing 250 ppm of the surfactant Trem® 014 (polyhydric alcohol esters). The resulting test suspensions were then used in tests A-R. In Tests A-M, compounds were sprayed as a 200 ppm test suspension (equivalent to a rate of 500 g/ha) or as a 40 ppm test suspension to the point of runoff on the test plants. In Tests N-R, compounds were sprayed as a 100 g/ha test suspension (equivalent to a rate of 100 ppm) on the test plants at an application volume of 1000 L/ha. The test suspension was sprayed to the point of run-off on wheat seedlings.

Septoria nodorum = assay: Test C: wheat glume blotch, preventive spray on wheat seedlings; details: 200 ppm, 100 = 100% disease control, 0 = no control relative to controls; for pest or weed control at 200 ppm: Parastagonospora nodorum, 216 h, read-out: Test C disease control rating
Source text: as §1

[2] = test system: Puccinia recondita f. sp. tritici; assay: Test B: wheat leaf rust, preventive spray on wheat seedlings; details: 200 ppm, 100 = 100% disease control, 0 = no control relative to controls; for pest or weed control at 200 ppm: Puccinia recondita, 192 h, read-out: Test B disease control rating
Source text: as §1

Septoria tritici = assay: Test D: wheat leaf blotch, preventive spray on wheat seedlings; details: 200 ppm, 100 = 100% disease control, 0 = no control relative to controls; for pest or weed control at 200 ppm: Zymoseptoria tritici, 504 h, read-out: Test D disease control rating
Source text: as §1

Fusarium graminearum = assay: whole plant or invertebrate; details: for pest or weed control at 200 ppm: Fusarium graminearum, in Triticum aestivum, 192 h, read-out: Test E disease control rating; for Test E disease control rating: 200 ppm, 100 = 100% disease control, 0 = no control relative to controls
[3] = test system: Colletotrichum orbiculare; assay: Test I: cucumber Colletotrichum anthracnose, preventive spray on cucumber seedlings; details: 100 = 100% disease control, 0 = no control relative to controls; for pest or weed control at 200 ppm: Colletotrichum orbiculare, 144 h, read-out: Test I disease control rating; for Test I disease control rating: 200 ppm
Source text: as §1, with “cucumber” for “wheat”

Botrytis cinerea = assay: Test F: tomato Botrytis, preventive spray on tomato seedlings; details: 200 ppm, 100 = 100% disease control, 0 = no control relative to controls; for pest or weed control at 200 ppm: Botrytis cinerea, 120 h, read-out: Test F disease control rating
Source text: as §1, with “tomato” for “wheat”

Row | SMILES | pest or weed control at 200 ppm [1] [%] | pest or weed control at 200 ppm (Septoria nodorum) [%] | pest or weed control at 200 ppm [2] [%] | pest or weed control at 200 ppm (Septoria tritici) [%] | pest or weed control at 200 ppm (Fusarium graminearum) [%] | pest or weed control at 200 ppm [3] [%] | pest or weed control at 200 ppm (Botrytis cinerea) [%] | Test A disease control rating [1] [%] | Test C disease control rating (Septoria nodorum) [%] | Test B disease control rating [2] [%] | Test D disease control rating (Septoria tritici) [%] | Test E disease control rating (Fusarium graminearum) [%] | Test I disease control rating [3] [%] | Test F disease control rating (Botrytis cinerea) [%]
1 | Cc1cccc(Cl)c1Nc1cc(-c2ccnc(NC3CCOCC3)n2)ccn1 [Compound 80, 4-[2-[(2-chloro-6-methylphenyl)amino]-4-pyridinyl]-N-(tetrahydro-2H-pyran-4-yl)-2-pyrimidinamine] | 86 | 99 | 100 | 93 | 98 | 98 | 99 |  |  |  |  |  |  | 
2 | Clc1cccc(Nc2ncnc(-c3ccnc(NC4CCOCC4)n3)n2)c1 [Compound 4, N-(3-chlorophenyl)-4-[2-[(tetrahydro-2H-pyran-4-yl)amino]-4-pyrimidinyl]-1,3,5-triazin-2-amine] | 0 | 99 | 91 | 11 | 0 | 66 | 0 |  |  |  |  |  |  | 
3 | COCC(C)Nc1nccc(-c2ccnc(Nc3c(C)cccc3Cl)c2)n1 (stereo not shown) [Compound 76, 4-[2-[(2-chloro-6-methylphenyl)amino]-4-pyridinyl]-N-(2-methoxy-1-methylethyl)-2-pyrimidinamine] | 36 | 99 | 99 | 87 | 93 | 72 | 97 |  |  |  |  |  |  | 
4 | COCC(C)Nc1nccc(-c2ccnc(Nc3c(C)cc(Cl)cc3Cl)c2)n1 (stereo not shown) [Compound 93] |  |  |  |  |  |  |  | 84 | 100 | 99 | 78 | 66 | 0 | 98
5 | Fc1cccc(Nc2cc(-c3ccnc(NCC4CCCO4)n3)ccn2)c1 (stereo not shown) [Compound 83, 4-[2-[(3-fluorophenyl)amino]-4-pyridinyl]-N-[(tetrahydro-2-furanyl)methyl]-2-pyrimidinamine] | 0 | 99 | 95 | 92 | 0 | 0 | 53 |  |  |  |  |  |  | 
6 | Fc1cccc(Nc2cc(-c3ccnc(NC4CC4)n3)ccn2)c1 [Compound 65] |  |  |  |  |  |  |  | 46 | 96 | 80 | 0 | 0 | 83 | 0
7 | Fc1cccc(Nc2cc(-c3ccnc(NCC4CCOC4)n3)ccn2)c1 (stereo not shown) [Compound 82, 4-[2-[(3-fluorophenyl)amino]-4-pyridinyl]-N-[(tetrahydro-3-furanyl)methyl]-2-pyrimidinamine] | 0 | 91 | 98 | 68 | 0 | 29 | 0 |  |  |  |  |  |  | 
8 | COCCCNc1nccc(-c2ccnc(Nc3cccc(F)c3)c2)n1 [Compound 64] |  |  |  |  |  |  |  | 0 | 97 | 94 | 95 | 0 | 92 | 0
9 | Clc1cccc(Nc2cc(-c3ccnc(NC4CCOCC4)n3)ccn2)c1 [Compound 69, 4-[2-[(3-chlorophenyl)amino]-4-pyridinyl]-N-(tetrahydro-2H-pyran-4-yl)-2-pyrimidinamine] | 91 | 97 | 94 | 77 | 0 | 0 | 85 |  |  |  |  |  |  | 
10 | COCC(C)Nc1nccc(-c2ccnc(Nc3c(C)ccc4ccccc34)c2)n1 (stereo not shown) [Compound 86] |  |  |  |  |  |  |  | 27 | 94 | 55 | 0 | 0 | 0 | 96
11 | COCC(C)Nc1nccc(-c2ccnc(Nc3cc(F)ccc3C)c2)n1 (stereo not shown) [Compound 91] |  |  |  |  |  |  |  | 97 | 94 | 99 | 7 | 19 | 0 | 98
12 | COCC(C)Nc1nccc(-c2ccnc(Nc3c(C)cccc3C)c2)n1 (stereo not shown) [Compound 77] |  |  |  |  |  |  |  | 95 | 99 | 99 | 61 | 92 | 96 | 88
13 | FC(F)(F)c1cccc(Cl)c1Nc1cc(-c2ccnc(NC3CCOCC3)n2)ccn1 [Compound 98] |  |  |  |  |  |  |  | 89 | 99 | 99 | 83 | 97 | 0 | 91
14 | CSCCNc1nccc(-c2ccnc(Nc3cccc(F)c3)c2)n1 [Compound 55] |  |  |  |  |  |  |  | 0 | 78 | 95 | 20 | 0 | 0 | 0
15 | Fc1cccc(Nc2cc(-c3ccnc(NC4CCCC4)n3)ccn2)c1 [Compound 62, N-cyclopentyl-4-[2-[(3-fluorophenyl)amino]-4-pyridinyl]-2-pyrimidinamine] | 0 | 0 | 94 | 14 | 0 | 0 | 0 |  |  |  |  |  |  | 
16 | COCC(C)Nc1nccc(-c2ccnc(Nc3c(C)ccc(Cl)c3C)c2)n1 (stereo not shown) [Compound 92] |  |  |  |  |  |  |  | 91 | 100 | 94 | 65 | 0 | 0 | 99
17 | COCCNc1nccc(-c2ccnc(Nc3cccc(F)c3)c2)n1 [Compound 58] |  |  |  |  |  |  |  | 44 | 99 | 98 | 36 | 0 | 24 | 86
18 | Fc1cccc(Nc2cc(-c3ccnc(NC4CCCOC4)n3)ccn2)c1 (stereo not shown) [Compound 75] |  |  |  |  |  |  |  | 0 | 89 | 83 | 28 | 0 | 9 | 90
19 | COCC(C)Nc1nccc(-c2ccnc(Nc3c(Cl)cccc3C(F)(F)F)c2)n1 (stereo not shown) [Compound 97] |  |  |  |  |  |  |  | 0 | 100 | 97 | 67 | 48 | 93 | 99

— patent US8026359B2, “Fungicidal heterocyclic amines” (E.I. du Pont de Nemours and Company, priority 2007, dated 2011)
